From PubChem BioAssay (NCI)
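Abbreviation: GI50, concentration required for 50% inhibition of growth. TGI denotes the concentration required for complete inhibition of growth.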

Assays:
Experiment in all cases: NCI-60 cell line screen, 384-well format
[1] = test system: U251 glioblastoma
[2] = test system: MOLT-4 leukemia
[3] = test system: HCT-15 colon
[4] = test system: SK-MEL-28 melanoma
[5] = test system: ACHN renal
[6] = test system: MDA-MB-468 breast
[7] = test system: T-47D breast
[8] = test system: PC-3 prostate
[9] = test system: A498 renal
[10] = test system: SR leukemia
[11] = test system: SK-MEL-5 melanoma
[12] = test system: UACC-257 melanoma
[13] = test system: SK-OV-3 ovarian
[14] = test system: HCT-116 colon
[15] = test system: M14 melanoma
[16] = test system: A549 NSCLC
[17] = test system: COLO 205 colon
[18] = test system: SN12C renal
[19] = test system: 786-0 renal
[20] = test system: OVCAR-3 ovarian
[21] = test system: KM12 colon
[22] = test system: RXF 393 renal
[23] = test system: IGROV1 ovarian
[24] = test system: UACC-62 melanoma
[25] = test system: OVCAR-5 ovarian
[26] = test system: RPMI-8226 leukemia
[27] = test system: SW-620 colon
[28] = test system: UO-31 renal
[29] = test system: SF-539 CNS
[30] = test system: OVCAR-8 ovarian
[31] = test system: CCRF-CEM leukemia
[32] = test system: MDA-MB-435 melanoma
[33] = test system: DU-145 prostate
[34] = test system: BT-549 breast
[35] = test system: HOP-62 NSCLC
[36] = test system: NCI-H460 NSCLC
[37] = test system: MDA-MB-231 breast
[38] = test system: HL-60(TB) leukemia
[39] = test system: LOX IMVI melanoma
[40] = test system: HCC-2998 colon
[41] = test system: OVCAR-4 ovarian
[42] = test system: HOP-92 NSCLC
[43] = test system: SF-295 CNS
[44] = test system: NCI-H522 lung
[45] = test system: HT29 colon
[46] = test system: NCI-H226 lung
[47] = test system: SK-MEL-2 melanoma
[48] = test system: K-562 leukemia
[49] = test system: SF-268 CNS
[50] = test system: NCI-H322M lung
[51] = test system: TK-10 renal
[52] = test system: CAKI-1 renal
[53] = test system: NCI-H23 lung
[54] = test system: SNB-19 CNS
[55] = test system: MCF7 breast
[56] = test system: MALME-3M melanoma
[57] = test system: NCI/ADR-RES ovarian

COc1cc(F)cc([C@@H](CO)NC(=O)[C@@H](C)N2Cc3ccc(-c4nc(NC5CCOCC5)ncc4Cl)cc3C2=O)c1
GI50 [1]: 0.46 µM
TGI [1]: 42.7 µM
GI50 [2]: 7.8 µM
TGI [2]: 20.2 µM
GI50 [3]: 14.4 µM
TGI [3]: 75.6 µM
GI50 [4]: < 0.01 µM
TGI [4]: < 0.01 µM
GI50 [5]: 5.8 µM
TGI [5]: 60.8 µM
GI50 [6]: 0.325 µM
TGI [6]: 10 µM
GI50 [7]: 11.7 µM
TGI [7]: 24.1 µM
GI50 [8]: 18.3 µM
TGI [8]: 36.2 µM
GI50 [9]: 10.4 µM
TGI [9]: 36.1 µM
GI50 [10]: 0.499 µM
TGI [10]: 14.7 µM
GI50 [11]: 0.0181 µM
TGI [11]: 12.1 µM
GI50 [12]: < 0.01 µM
TGI [12]: 0.0209 µM
GI50 [13]: 6.75 µM
TGI [13]: 63.2 µM
GI50 [14]: 0.0137 µM
TGI [14]: 0.201 µM
GI50 [15]: < 0.01 µM
TGI [15]: 0.0138 µM
GI50 [16]: 0.0457 µM
TGI [16]: 17.3 µM
GI50 [17]: < 0.01 µM
TGI [17]: 0.0246 µM
GI50 [18]: 16.6 µM
TGI [18]: 85.4 µM
GI50 [19]: 11.3 µM
TGI [19]: 34.1 µM
GI50 [20]: 13.9 µM
TGI [20]: 33.3 µM
GI50 [21]: 0.0465 µM
TGI [21]: 16.4 µM
GI50 [22]: 0.441 µM
TGI [22]: 16.9 µM
GI50 [23]: 0.145 µM
TGI [23]: 12.6 µM
GI50 [24]: < 0.01 µM
TGI [24]: 0.0427 µM
GI50 [25]: 0.0102 µM
TGI [25]: > 100 µM
GI50 [26]: 0.224 µM
TGI [26]: 5.09 µM
GI50 [27]: 0.0132 µM
TGI [27]: 19.3 µM
GI50 [28]: 0.578 µM
TGI [28]: 20.1 µM
GI50 [29]: 0.382 µM
TGI [29]: 15.6 µM
GI50 [30]: 12.4 µM
TGI [30]: 28.2 µM
GI50 [31]: 11.7 µM
TGI [31]: 24.7 µM
GI50 [32]: 0.0103 µM
TGI [32]: 20.1 µM
GI50 [33]: 11.3 µM
TGI [33]: 38.7 µM
GI50 [34]: 11.4 µM
TGI [34]: 23.8 µM
GI50 [35]: 0.218 µM
TGI [35]: 25.9 µM
GI50 [36]: 1.12 µM
TGI [36]: 31.3 µM
GI50 [37]: 0.0854 µM
TGI [37]: 19.1 µM
GI50 [38]: < 0.01 µM
TGI [38]: 0.0429 µM
GI50 [39]: 0.0134 µM
TGI [39]: 0.0671 µM
GI50 [40]: < 0.01 µM
TGI [40]: 0.0408 µM
GI50 [41]: 13.2 µM
TGI [41]: 39.3 µM
GI50 [42]: 0.0249 µM
TGI [42]: 0.162 µM
GI50 [43]: 15.2 µM
TGI [43]: 43 µM
GI50 [44]: 11.3 µM
TGI [44]: 27.4 µM
GI50 [45]: < 0.01 µM
TGI [45]: 13.4 µM
GI50 [46]: 0.214 µM
TGI [46]: 16.1 µM
GI50 [47]: < 0.01 µM
TGI [47]: 0.0312 µM
GI50 [48]: 0.409 µM
TGI [48]: 19 µM
GI50 [49]: 25.5 µM
TGI [49]: 79.5 µM
GI50 [50]: 0.0722 µM
TGI [50]: 25.8 µM
GI50 [51]: 0.821 µM
TGI [51]: 40.3 µM
GI50 [52]: 0.096 µM
TGI [52]: 33.3 µM
GI50 [53]: < 0.01 µM
TGI [53]: 0.0221 µM
GI50 [54]: 11 µM
TGI [54]: > 100 µM
GI50 [55]: 16.5 µM
TGI [55]: 31.9 µM
GI50 [56]: < 0.01 µM
TGI [56]: < 0.01 µM
GI50 [57]: 14.7 µM
TGI [57]: 31.9 µM
